Measurements reported in patent publication US20230226092A1, “CANCER […] ON G[…]” (NuCana plc, priority 2015, published 2023).
“Also recorded” adds a separate entry of the source.

Experiments:
[1] = test system: primary acute myeloid leukaemia (AML) blasts; assay: In vitro cytotoxicity assay (annexin V apoptosis) in primary acute myeloid leukemia cells; type: cell-based, human
Experimental: NUC-1031 was assayed for its cytotoxic effects on primary cultures of acute myeloid leukaemia (AML) blasts. LD50 values (the concentration required to kill 50% of the tumour cells in culture) were calculated in respect of NUC-1031 and gemcitabine.
Bone marrow samples were collected in ethylenediaminetetraacetic acid (EDTA) from newly diagnosed, previously untreated, acute myeloid leukemia (AML) patients. AML blasts were enriched by density gradient centrifugation using Histopaque (Sigma, Poole, UK) and were subsequently maintained in Roswell Park Memorial Institute medium (RPMI) supplemented with 10% foetal bovine serum (FBS). Cells were treated with Gemcitabine or NUC-1031 at concentrations between 0.25 µM and 10 µM, and incubated for 48h. All cultures were maintained at 37° C. in a 5% CO2 humidified atmosphere.
Cells were harvested and labelled with CD34-fluorescein isothiocyanate (FITC) (BD Biosciences, Buckingham, UK) and then resuspended in 200 µl of binding buffer containing 4µl of annexin V labelled with allophycocyanin (APC) (eBioscience Ltd, Hatfield, UK). Apoptosis was quantified in the CD34^+ AML cells using an Accuri C6 flow cytometer (Becton Dickinson, CA, USA). At least 10,000 events were acquired and data were subsequently analysed using FlowJo software (Tree Star Inc., Ashland, OR, USA). All LD50 values (concentration of drug required to kill 50% of cells) were derived from the dose-response curves.

[2] = test system: Lin^-/CD34^+/CD38^-/CD123^+ CSCs of KG1a cells; assay: Immunophenotypic identification of the leukaemic stem cell compartment in KG1a; type: cell-based, human; details: 72 h, sub-micromolar concentrations
Experimental: (§1) KG1a cells were cultured for 72 hours in the presence of a wide range of concentrations of each nucleoside analogue and their respective ProTides. Cells were then harvested and labelled with a cocktail of anti-lineage antibodies (PE-cy7), anti-CD34 (FITC), anti-CD38 (PE) and anti-CD123 (PERCP cy5). The sub-population expressing a leukaemic stem cell (LSC) phenotype were subsequently identified and were expressed as a percentage of all viable cells left in the culture. The percentages of stem cells remaining were then plotted on a dose-response graph and the effects of the ProTides were compared with the parental nucleoside.
as §1, with “compound assayed.” for “nucleoside analogue and their respective ProTides.”, “CSC” for “leukaemic stem cell (LSC)”, “CSCs” for “stem cells”, “NUC-1031 (and its purified isomers)” for “ProTides”, “gemcitabline.” for “the parental nucleoside.”

[3] = ProGem1 dose escalation clinical study: safety and tolerability; type: in vivo, human
Experimental: Although the primary objectives of the dose escalation part of the study were to determine the Recommended Phase II Dose (RP2D) and safety profile, secondary objectives included determining the PK profile, however effective treatment of patients with a range of refractory cancers has also been observed as part of this study.
NUC-1031 was administered as a 5 to 30 minute intravenous slow bolus injection. • Schedule A: NUC-1031 was administered on days 1, 8, 15 of a 4 weekly Cycle. • Schedule B: NUC-1031 was administered on days 1, 5, 8, 12, 15, 19, of a 4 weekly Cycle.

gemcitabine-[phenyl-benzoxy-L-alaninyl)]-phosphate [NUC-1031]
cytotoxic potency on CSCs and non-stem cancer cells compared with gemcitabine ([1]; AML blast cultures): increased potency
mean LD50 ([1]; primary AML blasts, CD34+ cells, 48h, annexin V): 1.6 µM
targeting of CSCs compared with Gemcitabine [2]: preferential targeting of CSCs
Adverse events (grade) / tolerability ([3]; Patient 004, breast cancer, 500 mg/m^2 weekly): tolerated treatment well
Adverse events (grade) / tolerability ([3]; Patient 005, ovarian cancer, 500 mg/m^2 weekly): tolerated treatment well
Adverse events (grade) / tolerability ([3]; Patient 007, colorectal cancer, possible linked to splenomegaly at baseline): thrombocytopaenia (G3)
Adverse events (grade) / tolerability ([3]; Patient 008, cancer of unknown primary, 375 mg/m^2 twice weekly, pleural effusion unlikely related to study drug): transient (G3) transaminitis (ALT and AST); also recorded: pleural effusion (G3)
Adverse events (grade) / tolerability ([3]; Patient 010, endometrial cancer, neutropenia in Cycle 1 at 750 mg/m^2): neutropenia (G3); also recorded: transient Grade 3 anaemia
Adverse events (grade) / tolerability ([3]; Patient 011, uterine carcinosarcoma, 375 mg/m^2 twice weekly): transient neutropaenia (G3); also recorded: low haemoglobin (G2)
Adverse events (grade) / tolerability ([3]; Patient 012, cholangiocarcinoma): tolerated treatment well
Adverse events (grade) / tolerability ([3]; Patient 015, cancer of unknown primary, Cycle 1 Day 8): thrombocytopenia (G3); also recorded: lymphopenia (G3); also recorded: neutropenia (G2)
Adverse events (grade) / tolerability ([3]; Patient 017, lung cancer): tolerated NUC-1031 well
Adverse events (grade) / tolerability ([3]; Patient 021, fallopian tube cancer, 625 mg/m^2 weekly): tolerated NUC-1031 well
Adverse events (grade) / tolerability ([3]; Patient 027, ovarian cancer, ALT after Cycle 1 Day 1 at 725 mg/m^2, a DLT): elevated ALT (G3); also recorded: mild neutropenia
ALT ([3]; Patient 027, ovarian cancer, day 7, from 96 at baseline): 256
Adverse events (grade) / tolerability ([3]; Patient 030, ovarian cancer, 725 mg/m^2 weekly): tolerated study drug well
Adverse events (grade) / tolerability ([3]; Patient 036, renal carcinoma, 825 mg/m^2 weekly, thrombocytopenia following Cycle 5 Day 1): thrombocytopenia (G3); also recorded: tolerating NUC-1031 much better than their previous regimen
Adverse events (grade) / tolerability ([3]; Patient 037, pancreatic cancer, 1,000, then 900 mg/m^2 weekly): loss of appetite, severe fatigue
Adverse events (grade) / tolerability ([3]; Patient 038, ovarian cancer, 900 mg/m^2 weekly, main toxicity, days 3 to 4): delayed onset fatigue
Adverse events (grade) / tolerability ([3]; Patient 040, cholangiocarcinoma, source was a stent blocked with tumour and a biliary tract cyst): infection (G3)
Adverse events (grade) / tolerability ([3]; Patient 041, breast cancer, 900 mg/m^2 weekly, fatigue during Cycle 3, neutropenia after Cycle 1 Day 8 and Day 15): fatigue (G3); also recorded: neutropenia
Adverse events (grade) / tolerability ([3]; Patient 042, cholangiocarcinoma, 900 mg/m^2 weekly, days 3-5): delayed onset fatigue (G2)
Adverse events (grade) / tolerability ([3]; Patient 043, ovarian cancer, 900 mg/m^2 weekly, fatigue on days 4 and 5): delayed onset fatigue (G2); also recorded: Leg oedema developed to G3
Adverse events (grade) / tolerability ([3]; Patient 044, lung cancer, 900, then 825 mg/m^2 weekly): G3 lung infection; also recorded: thrombocytopenia
Adverse events (grade) / tolerability ([3]; Patient 046, adrenal carcinoma, all G3 events in Cycle 1 at 1,000 mg/m^2, fatigue (G3) and neutropenia (G2) following Cycle 8 D1): delayed onset fatigue, nausea and vomiting (all G3); also recorded: neutropenia (G2)
Adverse events (grade) / tolerability ([3]; Patient 048, ovarian cancer, ALT, AST, neutropaenia (G2), ALP following Cycle 1 Day 1 at 1,000 mg/m^2, neutropenia (G3) in Cycle 4): ALT, (G3, a DLT); also recorded: AST and neutropaenia (G2); also recorded: ALP (G1); also recorded: neutropenia (G3); also recorded: diarrhoea following each dose
Adverse events (grade) / tolerability ([3]; Patient 050 (202), oesophageal cancer, following Cycle 1 Day 1 at 900 mg/m^2): ALT and fatigue, both G3
Adverse events (grade) / tolerability ([3]; Patient 051 (203), anal cancer, 900 mg/m^2 weekly): tolerated treatment well
Adverse events (grade) / tolerability ([3]; Patient 055 (207), ovarian cancer, 825 mg/m^2 weekly): nausea and vomiting post chemotherapy
Adverse events (grade) / tolerability ([3]; Patient 057 (209), ovarian cancer, Cycle 1 Day 15, 900 mg/m^2 weekly): anaemia and ascites both G3
Adverse events (grade) / tolerability ([3]; Patient 058 (210), lung cancer, Cycle 1 at 825 mg/m^2, may be partly due to a congenital liver condition): G3 transaminitis (ALT), a DLT
Adverse events (grade) / tolerability ([3]; Patient 059 (211), cervical cancer, thrombocytopenia in Cycle 1 at 825 mg/m^2, fatigue during Cycle 3): thrombocytopenia (G3); also recorded: fatigue (G3)
Adverse events (grade) / tolerability ([3]; Patient 060 (212), pancreatic cancer, 825 mg/m^2 weekly, required new stent): ALP, AST, ALT, all G3
Adverse events (grade) / tolerability ([3]; Patient 061 (213), colorectal cancer, 825 mg/m^2 weekly): no nausea or vomiting during treatment
Adverse events (grade) / tolerability ([3]; Patient 063 (215), ovarian cancer, fatigue on Cycle 3): fatigue (G3); also recorded: anaemia and neutropenia
Adverse events (grade) / tolerability ([3]; Patient 067 (219), osteosarcoma, 825 mg/m^2 weekly, neutropenia towards the end of each Cycle): neutropenia G2; also recorded: Tolerated study drug well
Adverse events (grade) / tolerability ([3]; Patient 069 (221), colorectal cancer, G4/G3 during Cycle 3 at 825 mg/m^2, G3 following Cycle 4 D1 at 750, G2 at C5 D8): neutropenia (G4); also recorded: neutropenia and leukopenia, G3; also recorded: neutropenia and leukopenia, G2
